Reference: ChEMBL document CHEMBL4229524, “Design, synthesis and preclinical evaluation of 5-methyl-N4-aryl-furo[2,3-d]pyrimidines as single agents with combination chemotherapy potential” (Bioorg Med Chem Lett, 2018)
Activity calls are given as the source filed them. No cut-off for these calls is given here.

Legend:
[1] = Antiproliferative activity against human SKOV3-MDR1-M6/6 cells after 72 hrs by sulforhodamine B assay; assay type: functional; conditions: SKOV3-MDR1-M6/6, 72 h
[2] = Inhibition of bovine brain tubulin assembly pretreated for 15 mins followed by GTP addition by spectrophotometric method; set-up: species or system Bos taurus
[3] = species: Bos taurus; assay: Inhibition of [3H]colchicine binding to bovine brain tubulin at 5 uM measured after 10 mins relative to control
[4] = Resistance index, ratio of IC50 for human HeLa cells to IC50 for human wild-type Hela-beta3 cells; assay type: functional
[5] = biological target: Epidermal growth factor receptor (Homo sapiens, UniProt P00533); assay type: cell-based
[6] = Antiproliferative activity against human wild-type Hela-beta3 cells after 72 hrs by sulforhodamine B assay; assay type: functional
[7] = species: Bos taurus; assay: Inhibition of [3H]colchicine binding to bovine brain tubulin at 1 uM measured after 10 mins relative to control
[8] = biological target: T1, Vascular endothelial growth factor receptor 2 (Homo sapiens, UniProt P35968); assay type: cell-based
[9] = tested on: A10; assay: Induction of microtubule depolymerization in rat A10 cells after 18 hrs by indirect immunofluorescence method; assay type: functional, cell-based; conditions: A10, 18 h
[10] = tested on: SK-OV-3; assay: Antiproliferative activity against human SKOV3 cells after 72 hrs by sulforhodamine B assay; assay type: functional, cell-based; conditions: SK-OV-3, 72 h
[11] = tested on: A-431; assay: Cytotoxicity against human A431 cells over-expressing EGFR; assay type: functional, cell-based
[12] = tested on: HeLa; assay: Antiproliferative activity against human HeLa cells after 72 hrs by sulforhodamine B assay; assay type: functional, cell-based
[13] = tested on: MDA-MB-435; assay: Antiproliferative activity against human MDA-MB-435 cells after 72 hrs by sulforhodamine B assay; assay type: functional, cell-based; conditions: MDA-MB-435, 72 h
[14] = biological target: T2, Platelet-derived growth factor receptor beta (Homo sapiens, UniProt P09619); assay: Inhibition of PDGF-BB-induced PDGFRbeta activation in human SH-SY5Y cells pretreated for 60 mins followed by PDGF-BB addition and measured after 10 mins by ELISA; assay type: cell-based
[15] = Resistance index, ratio of IC50 for human SKOV3-MDR1-M6/6 cells to IC50 for human SKOV3 cells; assay type: functional
[16] = tested on: Chorioallantoic membrane; assay: Antiangiogenic activity in Leghorn chicken embryo chorioallantoic membrane after 40 hrs by microscopic analysis; assay type: functional, tissue-based; conditions: Gallus gallus
[17] = tested on: Homo sapiens; assay: Antitumor activity against human LOX cells xenografted in sc dosed mouse assessed as reduction in cell viability administered daily for 4 days starting from 3 to 4 days post implantation measured post last dose by MTT based in-vivo hollow fiber assay; assay type: functional, organism-based
[18] = tested on: OVCAR-3; assay: Antitumor activity against human OVCAR3 cells xenografted in sc dosed mouse assessed as reduction in cell viability administered daily for 4 days starting from 3 to 4 days post implantation measured post last dose by MTT based in-vivo hollow fiber assay; assay type: functional, organism-based
[19] = tested on: UACC-62; assay: Antitumor activity against human UACC62 cells xenografted in ip dosed mouse assessed as reduction in cell viability administered daily for 4 days starting from 3 to 4 days post implantation measured post last dose by MTT based in-vivo hollow fiber assay; assay type: functional, organism-based
[20] = tested on: A498; assay: Antitumor activity against human A498 cells xenografted in athymic nude mouse assessed as reduction in tumor volume at 25 mg/kg, ip q2d for 19 days measured post last dose up to 40 days; assay type: functional; set-up: scale not given: the % may be the effect or the level left
[21] = tested on: NCI-H23; assay: Antitumor activity against human NCI-H23 cells xenografted in ip dosed mouse assessed as reduction in cell viability administered daily for 4 days starting from 3 to 4 days post implantation measured post last dose by MTT based in-vivo hollow fiber assay; assay type: functional, organism-based
[22] = tested on: Mus musculus; assay: Toxicity in athymic nude mouse xenografted with human A498 cells assessed as body weight at 25 mg/kg, ip q3d for 19 days measured post last dose relative to control; assay type: organism-based; conditions: in vivo, 456 h
[23] = tested on: SF-295; assay: Antitumor activity against human SF295 cells xenografted in ip dosed mouse assessed as reduction in cell viability administered daily for 4 days starting from 3 to 4 days post implantation measured post last dose by MTT based in-vivo hollow fiber assay; assay type: functional, organism-based
[24] = tested on: MDA-MB-231; assay: Antitumor activity against human MDA-MB-231 cells xenografted in sc dosed mouse assessed as reduction in cell viability administered daily for 4 days starting from 3 to 4 days post implantation measured post last dose by MTT based in-vivo hollow fiber assay; assay type: functional, organism-based
[25] = tested on: COLO 205; assay: Antitumor activity against human COLO205 cells xenografted in athymic nude mouse; assay type: functional, cell-based
[26] = tested on: A498; assay: Antitumor activity against human A498 cells xenografted in athymic nude mouse assessed as reduction in tumor volume at 25 mg/kg, ip qd for 19 days measured post last dose up to 40 days; assay type: functional; set-up: scale not given: the % may be the effect or the level left
[27] = tested on: UACC-62; assay: Antitumor activity against human UACC62 cells xenografted in sc dosed mouse assessed as reduction in cell viability administered daily for 4 days starting from 3 to 4 days post implantation measured post last dose by MTT based in-vivo hollow fiber assay; assay type: functional, organism-based
[28] = tested on: Mus musculus; assay: Toxicity in athymic nude mouse assessed as death at 250 to 500 mg/kg, po administered as single dose measured after 1 day; assay type: organism-based; conditions: in vivo, 24 h
[29] = tested on: U-251; assay: Antitumor activity against human U251 cells xenografted in sc dosed mouse assessed as reduction in cell viability administered daily for 4 days starting from 3 to 4 days post implantation measured post last dose by MTT based in-vivo hollow fiber assay; assay type: functional, organism-based
[30] = tested on: SW-620; assay: Antitumor activity against human SW620 cells xenografted in sc dosed mouse assessed as reduction in cell viability administered daily for 4 days starting from 3 to 4 days post implantation measured post last dose by MTT based in-vivo hollow fiber assay; assay type: functional, organism-based
[31] = tested on: OVCAR-5; assay: Antitumor activity against human OVCAR5 cells xenografted in sc dosed mouse assessed as reduction in cell viability administered daily for 4 days starting from 3 to 4 days post implantation measured post last dose by MTT based in-vivo hollow fiber assay; assay type: functional, organism-based
[32] = tested on: Mus musculus; assay: Toxicity in athymic nude mouse xenografted with human A498 cells assessed as body weight at 25 mg/kg, ip q2d for 19 days measured post last dose relative to control; assay type: organism-based; conditions: in vivo, 456 h
[33] = tested on: NCI-H522; assay: Antitumor activity against human NCI-H522 cells xenografted in sc dosed mouse assessed as reduction in cell viability administered daily for 4 days starting from 3 to 4 days post implantation measured post last dose by MTT based in-vivo hollow fiber assay; assay type: functional, organism-based
[34] = tested on: SF-295; assay: Antitumor activity against human SF295 cells xenografted in sc dosed mouse assessed as reduction in cell viability administered daily for 4 days starting from 3 to 4 days post implantation measured post last dose by MTT based in-vivo hollow fiber assay; assay type: functional, organism-based
[35] = tested on: Mus musculus; assay: Toxicity in athymic nude mouse assessed as survival at 12.5 to 50 mg/kg, po administered as single dose; assay type: organism-based; conditions: in vivo
[36] = biological target: T2, Platelet-derived growth factor receptor beta; assay: Potency index, ratio of sunitinib IC50 to test compound IC50 for PDGF-BB-induced PDGFRbeta activation in human SH-SY5Y cells; assay type: cell-based
[37] = tested on: MDA-MB-435; assay: Antitumor activity against human MDA-MB-435 cells xenografted in ip dosed mouse assessed as reduction in cell viability administered daily for 4 days starting from 3 to 4 days post implantation measured post last dose by MTT based in-vivo hollow fiber assay; assay type: functional, organism-based
[38] = tested on: A498; assay: Antitumor activity against human A498 cells xenografted in athymic nude mouse assessed as reduction in tumor volume at 25 mg/kg, ip q3d for 19 days measured post last dose up to 40 days; assay type: functional; set-up: scale not given: the % may be the effect or the level left
[39] = tested on: COLO 205; assay: Antitumor activity against human COLO205 cells xenografted in ip dosed mouse assessed as reduction in cell viability administered daily for 4 days starting from 3 to 4 days post implantation measured post last dose by MTT based in-vivo hollow fiber assay; assay type: functional, organism-based
[40] = tested on: NCI-H522; assay: Antitumor activity against human NCI-H522 cells xenografted in athymic nude mouse; assay type: functional, cell-based
[41] = biological target: T1, Vascular endothelial growth factor receptor 2; assay: Potency index, ratio of sunitinib IC50 to test compound IC50 for VEGF-induced VEGFR2 activation in human U251 cells; assay type: cell-based
[42] = tested on: Mus musculus; assay: Toxicity in athymic nude mouse assessed as death at 100 mg/kg, po administered as single dose measured after 4 days; assay type: organism-based; conditions: in vivo, 96 h
[43] = tested on: COLO 205; assay: Antitumor activity against human COLO205 cells xenografted in sc dosed mouse assessed as reduction in cell viability administered daily for 4 days starting from 3 to 4 days post implantation measured post last dose by MTT based in-vivo hollow fiber assay; assay type: functional, organism-based
[44] = tested on: Homo sapiens; assay: Antitumor activity against human LOX cells xenografted in ip dosed mouse assessed as reduction in cell viability administered daily for 4 days starting from 3 to 4 days post implantation measured post last dose by MTT based in-vivo hollow fiber assay; assay type: functional, organism-based
[45] = tested on: SW-620; assay: Antitumor activity against human SW620 cells xenografted in ip dosed mouse assessed as reduction in cell viability administered daily for 4 days starting from 3 to 4 days post implantation measured post last dose by MTT based in-vivo hollow fiber assay; assay type: functional, organism-based
[46] = tested on: Mus musculus; assay: Toxicity in athymic nude mouse xenografted with human A498 cells assessed as body weight at 25 mg/kg, ip qd for 19 days measured post last dose relative to control; assay type: organism-based; conditions: in vivo, 456 h
[47] = tested on: OVCAR-5; assay: Antitumor activity against human OVCAR5 cells xenografted in ip dosed mouse assessed as reduction in cell viability administered daily for 4 days starting from 3 to 4 days post implantation measured post last dose by MTT based in-vivo hollow fiber assay; assay type: functional, organism-based
[48] = tested on: MDA-MB-435; assay: Antitumor activity against human MDA-MB-435 cells xenografted in sc dosed mouse assessed as reduction in cell viability administered daily for 4 days starting from 3 to 4 days post implantation measured post last dose by MTT based in-vivo hollow fiber assay; assay type: functional, organism-based
[49] = tested on: OVCAR-3; assay: Antitumor activity against human OVCAR3 cells xenografted in ip dosed mouse assessed as reduction in cell viability administered daily for 4 days starting from 3 to 4 days post implantation measured post last dose by MTT based in-vivo hollow fiber assay; assay type: functional, organism-based
[50] = tested on: NCI-H522; assay: Antitumor activity against human NCI-H522 cells xenografted in ip dosed mouse assessed as reduction in cell viability administered daily for 4 days starting from 3 to 4 days post implantation measured post last dose by MTT based in-vivo hollow fiber assay; assay type: functional, organism-based
[51] = tested on: MDA-MB-231; assay: Antitumor activity against human MDA-MB-231 cells xenografted in ip dosed mouse assessed as reduction in cell viability administered daily for 4 days starting from 3 to 4 days post implantation measured post last dose by MTT based in-vivo hollow fiber assay; assay type: functional, organism-based
[52] = tested on: NCI-H23; assay: Antitumor activity against human NCI-H23 cells xenografted in sc dosed mouse assessed as reduction in cell viability administered daily for 4 days starting from 3 to 4 days post implantation measured post last dose by MTT based in-vivo hollow fiber assay; assay type: functional, organism-based
[53] = tested on: U-251; assay: Antitumor activity against human U251 cells xenografted in ip dosed mouse assessed as reduction in cell viability administered daily for 4 days starting from 3 to 4 days post implantation measured post last dose by MTT based in-vivo hollow fiber assay; assay type: functional, organism-based

T2 sequence (P09619 whole entry): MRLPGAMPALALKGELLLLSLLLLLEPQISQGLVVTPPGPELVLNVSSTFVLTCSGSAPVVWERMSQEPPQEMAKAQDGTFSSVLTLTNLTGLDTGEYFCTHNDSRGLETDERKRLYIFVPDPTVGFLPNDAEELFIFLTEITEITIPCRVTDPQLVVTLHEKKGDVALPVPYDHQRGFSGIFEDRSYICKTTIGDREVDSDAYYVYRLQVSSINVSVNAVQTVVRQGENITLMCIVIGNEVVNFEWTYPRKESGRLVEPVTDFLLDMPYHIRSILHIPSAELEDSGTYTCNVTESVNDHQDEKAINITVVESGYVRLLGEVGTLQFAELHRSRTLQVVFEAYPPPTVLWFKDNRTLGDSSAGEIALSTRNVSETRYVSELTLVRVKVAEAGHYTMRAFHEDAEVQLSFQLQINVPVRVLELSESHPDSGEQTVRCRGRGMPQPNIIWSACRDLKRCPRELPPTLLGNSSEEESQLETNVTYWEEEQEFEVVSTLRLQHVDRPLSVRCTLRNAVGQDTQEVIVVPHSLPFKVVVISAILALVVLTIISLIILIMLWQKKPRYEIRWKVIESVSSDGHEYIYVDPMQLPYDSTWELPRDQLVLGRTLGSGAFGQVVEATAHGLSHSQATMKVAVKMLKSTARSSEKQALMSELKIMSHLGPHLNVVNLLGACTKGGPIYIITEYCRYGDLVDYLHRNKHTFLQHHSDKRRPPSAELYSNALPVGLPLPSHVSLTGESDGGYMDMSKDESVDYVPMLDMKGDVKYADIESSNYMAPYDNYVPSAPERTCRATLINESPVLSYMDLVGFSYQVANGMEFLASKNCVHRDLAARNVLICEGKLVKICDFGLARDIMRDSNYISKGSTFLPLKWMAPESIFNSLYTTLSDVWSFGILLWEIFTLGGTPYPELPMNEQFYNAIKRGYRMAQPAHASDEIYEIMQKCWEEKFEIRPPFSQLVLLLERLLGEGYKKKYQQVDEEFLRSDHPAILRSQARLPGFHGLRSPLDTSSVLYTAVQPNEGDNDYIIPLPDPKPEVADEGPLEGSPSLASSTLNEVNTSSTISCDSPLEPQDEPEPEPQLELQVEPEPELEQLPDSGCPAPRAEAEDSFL
T1 sequence (P35968 whole entry): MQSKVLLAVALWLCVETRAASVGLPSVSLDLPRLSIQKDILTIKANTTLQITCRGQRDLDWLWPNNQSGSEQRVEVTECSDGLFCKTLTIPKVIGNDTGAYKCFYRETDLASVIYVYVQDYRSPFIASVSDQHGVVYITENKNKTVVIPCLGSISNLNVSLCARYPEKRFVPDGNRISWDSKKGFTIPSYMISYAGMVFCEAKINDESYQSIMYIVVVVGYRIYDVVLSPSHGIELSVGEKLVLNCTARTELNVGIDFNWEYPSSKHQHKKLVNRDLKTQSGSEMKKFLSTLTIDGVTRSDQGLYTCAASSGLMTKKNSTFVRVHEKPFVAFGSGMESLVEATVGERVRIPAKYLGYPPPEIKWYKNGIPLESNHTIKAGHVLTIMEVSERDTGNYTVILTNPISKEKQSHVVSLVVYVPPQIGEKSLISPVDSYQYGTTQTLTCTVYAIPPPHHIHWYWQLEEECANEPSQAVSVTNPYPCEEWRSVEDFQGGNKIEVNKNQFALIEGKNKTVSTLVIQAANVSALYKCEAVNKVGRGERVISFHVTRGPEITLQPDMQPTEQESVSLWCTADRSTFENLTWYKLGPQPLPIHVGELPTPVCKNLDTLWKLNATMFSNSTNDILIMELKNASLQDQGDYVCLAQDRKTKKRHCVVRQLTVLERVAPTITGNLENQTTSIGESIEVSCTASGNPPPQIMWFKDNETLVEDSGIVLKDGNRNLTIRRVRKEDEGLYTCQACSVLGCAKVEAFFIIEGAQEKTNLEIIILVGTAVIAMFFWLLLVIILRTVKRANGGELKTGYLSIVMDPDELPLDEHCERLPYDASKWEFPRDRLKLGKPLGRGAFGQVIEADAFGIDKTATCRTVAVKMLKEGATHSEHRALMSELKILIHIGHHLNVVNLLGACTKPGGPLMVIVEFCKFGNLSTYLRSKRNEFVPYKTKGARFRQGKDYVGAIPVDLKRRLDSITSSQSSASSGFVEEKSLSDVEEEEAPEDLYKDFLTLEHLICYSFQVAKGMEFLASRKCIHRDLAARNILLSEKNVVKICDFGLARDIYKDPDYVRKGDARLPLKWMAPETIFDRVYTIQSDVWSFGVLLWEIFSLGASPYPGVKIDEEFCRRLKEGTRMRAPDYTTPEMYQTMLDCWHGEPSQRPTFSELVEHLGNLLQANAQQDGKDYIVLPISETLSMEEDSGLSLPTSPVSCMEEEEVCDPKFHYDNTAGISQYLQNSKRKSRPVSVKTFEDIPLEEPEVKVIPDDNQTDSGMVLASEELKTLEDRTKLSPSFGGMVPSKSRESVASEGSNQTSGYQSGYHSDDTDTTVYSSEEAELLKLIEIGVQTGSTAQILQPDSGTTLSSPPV
Epidermal growth factor receptor, sequence (P00533 whole entry): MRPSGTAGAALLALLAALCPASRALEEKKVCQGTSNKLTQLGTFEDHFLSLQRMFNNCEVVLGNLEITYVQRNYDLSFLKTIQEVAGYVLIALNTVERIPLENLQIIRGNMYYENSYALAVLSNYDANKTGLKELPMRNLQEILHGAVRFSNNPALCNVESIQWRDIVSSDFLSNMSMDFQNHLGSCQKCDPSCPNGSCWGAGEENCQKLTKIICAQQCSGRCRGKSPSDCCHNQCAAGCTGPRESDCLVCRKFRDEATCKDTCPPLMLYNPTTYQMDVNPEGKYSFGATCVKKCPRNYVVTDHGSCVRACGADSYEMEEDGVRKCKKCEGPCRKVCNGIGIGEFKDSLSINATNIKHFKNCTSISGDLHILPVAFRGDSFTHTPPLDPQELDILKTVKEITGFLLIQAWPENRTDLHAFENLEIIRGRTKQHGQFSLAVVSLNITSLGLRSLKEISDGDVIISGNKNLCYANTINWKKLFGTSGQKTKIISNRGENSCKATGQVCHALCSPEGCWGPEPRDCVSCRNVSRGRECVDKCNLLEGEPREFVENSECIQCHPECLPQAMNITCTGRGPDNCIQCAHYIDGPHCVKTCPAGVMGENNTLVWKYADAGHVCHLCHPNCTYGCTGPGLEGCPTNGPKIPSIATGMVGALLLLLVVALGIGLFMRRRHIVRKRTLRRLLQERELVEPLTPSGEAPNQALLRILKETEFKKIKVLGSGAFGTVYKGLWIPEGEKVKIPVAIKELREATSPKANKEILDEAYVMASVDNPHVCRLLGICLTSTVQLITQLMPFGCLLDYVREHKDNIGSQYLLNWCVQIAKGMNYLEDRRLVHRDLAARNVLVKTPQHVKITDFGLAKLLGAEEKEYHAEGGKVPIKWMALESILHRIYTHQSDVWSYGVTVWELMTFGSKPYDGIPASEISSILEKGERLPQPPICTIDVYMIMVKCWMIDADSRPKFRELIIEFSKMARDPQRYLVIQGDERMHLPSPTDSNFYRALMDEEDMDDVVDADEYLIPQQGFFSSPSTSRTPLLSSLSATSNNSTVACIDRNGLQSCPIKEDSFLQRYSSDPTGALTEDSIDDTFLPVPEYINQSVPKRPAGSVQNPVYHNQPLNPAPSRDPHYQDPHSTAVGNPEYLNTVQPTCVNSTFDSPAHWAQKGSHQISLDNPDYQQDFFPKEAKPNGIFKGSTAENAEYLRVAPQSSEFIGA

Compound: Cc1coc2ncnc(N(C)c3ccc(N(C)C)cc3)c12
- IC50 [1]: 91 nM
- IC50 [2]: 1100 nM
- inhibition [3]: 86%
- Ratio IC50 [4]: 1
- IC50 [5]: 3.1 nM
- IC50 [6]: 60 nM
- inhibition [7]: 59%
- IC50 [8]: 15.6 nM
- EC50 [9]: 140 nM
- IC50 [10]: 70 nM
- IC50 [11]: 1 nM
- IC50 [12]: 58 nM
- IC50 [13]: 44 nM
- IC50 [14]: 63 nM
- Ratio IC50 [15]: 1.3
- IC50 [16]: 653 nM

Compound: COc1ccc(N(C)c2ncnc3occ(C)c23)cc1
- Activity [17]: Active
- Activity [18]: Active
- Activity [19]: Active
- Activity [20]: 25 - 50%
- Activity [21]: Active
- T/C [22]: 71%
- Activity [23]: Active
- Activity [24]: Active
- Activity [25]: inactive
- Activity [26]: 25 - 50%
- Activity [27]: Active
- Activity [28]: Toxic
- Activity [29]: Active
- Activity [30]: Active
- Activity [31]: Active
- T/C [32]: 38%
- IC50 [5]: 15.5 nM
- Activity [33]: Active
- Activity [34]: Active
- MSD [35]: 15 days
- Ratio IC50 [36]: 7
- IC50 [8]: 9.3 nM
- Activity [37]: Active
- Activity [38]: 25 - 50%
- Activity [39]: Active
- Activity [40]: inactive
- IC50 [11]: 5.1 nM
- Ratio IC50 [41]: 2
- Activity [42]: Toxic
- Activity [43]: Active
- Activity [44]: Active
- Activity [45]: Active
- T/C [46]: 47%
- Activity [47]: Active
- Activity [48]: Active
- IC50 [14]: 12.3 nM
- Activity [49]: Active
- Activity [50]: Active
- Activity [51]: Active
- Activity [52]: Active
- Activity [53]: Active
- IC50 [16]: 80 nM
